Assay [1] relates to lung cancer cell line A549. Briefly: DNA microarray gene expression after 5-AZA treatment. The format is cell-based, human. As to the method:
Cells of lung cancer cell line A549 were treated with 5-AZA (10 μM) for 3 days and the RNAs were extracted. Gene expression levels were measured using DNA microarrays. The criteria for identifying the candidate genes were that the expression level was close to 0 in the non-treated cells and increased by 30 times or more in the 5-AZA-treated cells. Some candidate genes were found, including SYCP3 (untreated: 3.0, 5-AZA treated: 340.9, fold-change: […]), SPESP1 (untreated: 1.7, 5-AZA treated: 65.3, fold-change: […]), and DAZL1 (untreated: 2.8, 5-AZA treated: 341.3, fold-change: 123.6).

Assay [2] concerns SYCP3 gene expression in EBC1, Lu65, HT-29, SAS. Briefly: SYCP3 gene expression by real-time PCR in 5-AZA-treated cancer cell lines. The format is cell-based, human. As to conditions: 5-AZA 10 μM, 3 days; all tested cell lines (EBC1, Lu65, HT-29, SAS). The protocol:
(§1) Cells of cancer cell lines (lung cancer cell line EBC1, lung cancer cell line Lu65, colon cancer cell line HT-29, and oral squamous cell carcinoma cell line SAS) were cultured in the complete medium (RPMI 1640 medium (nacalai tesque 30264-56) with 100 U/mL penicillin (Meiji Seika) and […] streptomycin (Meiji Seika), added with 10% fetal bovine serum (biosera FB-1365/500) which had been […] at 56° C. for 30 minutes) containing 5-AZA (10 μM) at the density of 2×10^5 cells/well in 6-well plates (Falcon 353046) in an incubator (SANYO) set at 37° C., 5% CO2, and 95% humidity for 3 days. The same incubator was used for all cell cultures in the following tests. The cells were washed with 2 mL of a phosphate-buffered saline (PBS, KANTO CHEMICAL CO., INC. 73111). The RNAs were extracted with RNeasy Mini Kit (Qiagen 74106), and the cDNAs were synthesized by using PrimeScript 1st strand cDNA Synthesis Kit (Takara Bio 6110A), and the gene expression levels of GAPDH (Applied Biosystems Hs02786624_g1) and SYCP3 (Applied Biosystems Hs00538146_m1) were analyzed by real-time PCR using LightCycler480 (Roche). Each step was carried out in accordance with the description of the package inserts attached to each reagent.
Background: In qPCR the cycle at which signal appears reflects the starting amount.

The test system of assay [3] is SPESP1 gene expression in SW839, 5637, LC2/Ad, EBC1, HT-29, Lu65, SAS. Briefly: SPESP1 gene expression by real-time PCR in 5-AZA-treated cancer cell lines. It counts as cell-based, human. The settings on record: all tested cell lines.
Procedure: Cells of cancer cell lines (lung cancer cell line EBC1, lung cancer cell line Lu65, colon cancer cell line HT-29, and oral squamous cell carcinoma cell line SAS) were cultured in the complete medium (RPMI 1640 medium (nacalai tesque 30264-56) with 100 U/mL penicillin (Meiji Seika) and 100 μg/L streptomycin (Meiji Seika), added with 10% fetal bovine serum (biosera FB-1365/500) which had been immobilized at 56° C. for 30 minutes) containing 5-AZA (10 μM) at the density of 2×10^5 cells/well in 6-well plates (Falcon 353046) in an incubator (SANYO) set at 37° C., 5% CO2, and 95% humidity for 3 days. […] The RNAs were extracted with RNeasy Mini Kit (Qiagen 74106), and the cDNAs were synthesized by using PrimeScript 1st strand cDNA Synthesis Kit (Takara Bio 6110A), and the gene expression levels of GAPDH (Applied Biosystems Hs02786624_g1) and SYCP3 (Applied Biosystems Hs00538146_m1) were analyzed by real-time PCR using LightCycler480 (Roche). […]
Similarly, cells of renal cancer cell line SW839, bladder cancer cell line 5637, lung adenocarcinoma cell line LC2/Ad, lung cancer cell line EBC1, colon cancer cell line HT-29, lung cancer cell line Lu65, and oral squamous cell carcinoma cell line SAS were cultured in the presence of 5-AZA, and the gene expression levels of GAPDH and SPESP1 (Applied Biosystems Hs00377364_m1) were analyzed.
Assay [4] concerns mouse DAZL1 gene expression in WEHI-3. As to the kind of experiment: DAZL1 gene expression by real-time PCR in 5-AZA-treated WEHI-3. The format is cell-based. As to the method: as §1, with “Each step was carried out in accordance with the description of the package inserts attached to each reagent.” left out
Similarly, cells of mouse leukemia cell line WEHI-3 (Balb/c) was cultured in the presence of 5-AZA, and the gene expression levels of mouse GAPDH (Applied Biosystems Mm99999915_g1) and mouse DAZL1 (Applied Biosystems Mm01273546_m1) were analyzed.

Assay [5] deals with SYCP3 protein in EBC1 and Lu65. As to the kind of experiment: SYCP3 protein by Western blotting. It counts as cell-based, human. As to conditions: EBC1 and Lu65 treated with 5-AZA. The protocol:
The amount of SYCP3 protein in EBC1 and Lu65 treated with 5-AZA was analyzed by Western blotting. An anti-SYCP3 antibody (Mouse anti-SCP3, BD Bioscience 611230) diluted at 1:200 was used as the primary antibody. Upregulation of SYCP3 by the 5-AZA treatment was also observed at the protein level.
A general note: A western blot detects proteins with antibodies after separation by electrophoresis.

Assay [6] concerns DAZL1 protein in E0771 and C1498. As to the kind of experiment: DAZL1 protein by Western blotting in mouse cancer cell lines. As to conditions: 5-AZA 10 μM. It counts as cell-based. The protocol:
Cells of mouse cancer cell lines (E0771:C57BL/6 mouse breast cancer cell line and C1498:C57BL/6 mouse acute myeloid leukemia cell line) were treated with 5-AZA (10 μM), and the amount of DAZL1 protein was analyzed by Western blotting.

Assay [7] relates to SYCP3 gene expression in HT-29 or WiDr tumor tissues. Briefly: SYCP3 gene expression in tumor tissues of nude mice given 5-AZA. It counts as in vivo, mouse. The settings on record: 5-AZA 1.6 μg/g i.p. Days 5, 10, 15, 20; tumors Day 25; vs PBS alone. As to the method: To the control mice, 200 μL of PBS was intraperitoneally administered.
For assay [8], the system named is SPESP1 gene expression in EBC1 or Lu65 tumor tissues. As to the kind of experiment: SPESP1 gene expression in tumor tissues of nude mice given 5-AZA. The format is in vivo, mouse. The settings on record: 5-AZA i.p.; tumors Day 25; vs PBS alone. As to the method:
Similarly, nude mice were intradermally injected with cells of lung cancer cell line EBC1 (5×10^5 cells) or Lu65 (5×10^5 cells), and 5-AZA or PBS (control) was intraperitoneally administered. The RNAs were extracted from the tumor tissues collected on Day 25, and the gene expression levels of SPESP1 and GAPDH were analyzed by real-time PCR.

Assay [9] relates to lung cancer cell line Lu65. As to the kind of experiment: Tumor growth in nude mice bearing Lu65. The format is in vivo, mouse. As to conditions: BALB/c nude mice, 5-AZA 150 nmol/g i.p. Days 7, 12, 17, 22, Th cells i.v. Days 13, 20, 27. The protocol: BALB/c nude mice (10 to 14 weeks old, CHARLES RIVER LABORATORIES JAPAN) were intradermally injected with 3×10^6 cells of lung cancer cell line Lu65 using Myjector, and on Days 7, 12, 17, and 22, 200 μL of PBS containing 5-AZA (150 nmol/g of mouse body weight) was intraperitoneally administered using Myjector. To the control mice, 200 μL of PBS was intraperitoneally administered. On Days 13, 20, and 27, 200 μL of SYCP3-specific human Th cells (3 to 5×10^6 cells) were administered by tail vein administration. To the control mice, 200 μL of PBS was administered by tail vein administration. The tumor surface areas were measured over time.

Assay [10] concerns DR53-positive cancer cell lines (WiDr, Lu65, and Calu1). The settings on record: cancer cells pretreated with 10 μM 5-AZA and 500 U/mL IFN-γ for 3 days; co-culture 24 hours.
Procedure: In order to study the reactivity of SYCP3-A peptide-specific CD4-positive T-cells toward cells of cancer cell lines, DR53-positive cancer cell lines (WiDr, Lu65, and Calu1) were used. The cancer cells were cultured in 6-well culture plates for 3 days using 2 mL of the complete medium containing 10 μM 5-AZA and 500 U/mL IFN-γ (Immunomax-γ for injection 50, Shionogi), which can induce expression of HLA class II molecules on the surfaces of cancer cells. The culture plates were thoroughly washed with PBS, 1 mL of 5 mM EDTA (ethylenediaminetetraacetic acid, nacalai tesque 14347-21) was added to suspend the cells, and the cells were recovered. In the same manner as in Test 8, 1×10^4 cells of each cell line and 5×10^4 CD4-positive T-cells were co-cultured in 96-well flat bottom culture plates using 200 μL of the culture medium for human cells. […] After 24 hours 100 μL of the culture supernatants were collected from each well, and the IFN-γ concentrations were determined using the ELISA kit.
The mark [11] stands for this setting: A549, 5-AZA 10 μM, 3 days, DNA microarray.
The mark [12] stands for this setting: A549, 5-AZA treated vs untreated.

With `Nc1ncn([C@H]2C[C@H](O)[C@@H](CO)O2)c(=O)n1` [5-AZA, 5-aza-2′-deoxycytidine], in assay [1] (setting [11]), the “DAZL1 gene expression level, 5-AZA treated” value came out at 341.3; the “SPESP1 gene expression level, 5-AZA treated” value is recorded as 65.3; the “SYCP3 gene expression level, 5-AZA treated” value stood at 340.9. For the same molecule, in assay [1] (setting [12]), the DAZL1 fold-change is 123.6, the SPESP1 fold-change was determined as 38.8 and the SYCP3 fold-change turned out to be 112.3. In addition, the “SYCP3 gene expression level” value in [2] was “upregulated”. For the same molecule, in assay [3], the “SPESP1 gene expression level” value is “upregulated”. In assay [4], the “DAZL1 gene expression level” value was “upregulated”. The “amount of SYCP3 protein” value in assay [5] is recorded as “Upregulation”. For the same molecule, in assay [6], the “amount of DAZL1 protein” value is “upregulated”. For the same molecule, the “SYCP3 gene expression in tumor tissues” value in assay [7] was “upregulated”. Also, in assay [8], the “SPESP1 gene expression in tumor tissues” value was “upregulated”. Moreover, the “tumor growth (tumor surface area)” value in assay [9] was “No effect”. Further, the “IFN-γ production of SYCP3-A-specific CD4-positive T-cells toward cancer cells” value in [10] is listed as “increased the IFN-γ production”.

The record behind these values is US20220152174A1, “Cancer Antigen Peptide” (National University Corporation Asahikawa Medical University, priority 2018, published 2022).
